According to patent US7820374B2, “Detection methods based on HR23 protein binding molecules” (Erasmus Universiteit Rotterdam, priority 2001, dated 2010):
Where a SMILES comes first, the peptide text is derived from it. The star is where a group is joined. Cbz = O=C(OCc1ccccc1)*

Legend:
[1] = tested on: DKO cells expressing hXPC-GFP/hHR23B; test: XPC-GFP accumulation in living DKO cells expressing hXPC-GFP/hHR23B after exposure to agents (fluorescence microscopy); type: cell-based, mouse
Procedure: Cells stably expressing hXPC-GFP/hHR23B were rinsed with PBS, exposed to UV-C light (254 nm; Philips TUV lamp, dose as indicated in the text) and subsequently cultured at 37° C. for various time periods (as indicated in the text). XPC was detected either by immunoblot analysis or by visualization in living cells using fluorescence microscopy. A similar approach was used to study the effect of N-acetoxy-2-acetylaminofluorene (NA-AAF, final concentration 50 or 100 μM), mitomycin C (MMC, Sigma, final concentration 1.2 or 2.4 μg/ml), ionizing radiation (γ-rays from a ^137Cs source, single dose of 6 and 10 Gy), the proteasome inhibitor N-CBZ-LEU-LEU-LEU-AL (CBZ-LLL, Sigma, final concentration 5 or 10 μM), the transcription inhibitor 5,6-dichloro-1β-D-ribofuranosyl-benzimidazole (DRB, Sigma, final concentration of 100 μM, 2-3 hrs), the translation inhibitor cyclohexamide (CHX, Boehringer, final concentration 30, 50, and 100 μg/ml, 1-3 hours), heat shock (39.5 and 41° C., for 2-12 hrs), and the nuclear export inhibitor leptomycin B (LMB, Sigma, final concentration 10 ng/ml).
Immunofluorescent microscopy images were obtained with either a Leitz Aristoplan microscope equipped with epifluorescene optics and a PlanApo 63×/1.40 oil immersion lens or a Leica DMRBE microscope equipped with epifluorescene optics and a PL Fluotar 100×/1.30 oil immersion lens. For the detection of GFP-tagged proteins in the living cell, an Olympus IX70 microscope equipped with epifluorescence optics and Olympus PlanApo 60×/1.40 oil immersion lens was used. GFP images were obtained after excitation with 455-490 and long pass emission filter (>510 nm). Cy-3 images were obtained after excitation with 515-560 and long pass emission filter (580 nm).

[2] = tested on: CRM1/Exportin1-mediated nuclear export of XPC-GFP; test: Heterokaryon nuclear-cytoplasmic shuttling assay (DKO cells expressing XPC-GFP/hHR23B fused to HeLa cells); type: cell-based, mouse/human heterokaryon; details: LMB 10 ng/ml directly after cell fusion; XPC-GFP induced by 10 J/m^2 UV-C 6 hr prior to fusion; 4 hr after fusion
Procedure: The shuttling assay using heterokaryons was performed as described (Borer et al., 1989). One day before cell fusion, DKO cells stably expressing hXCPC-GFP/hHR23B and HeLa cells were seeded in a 1:1 ratio on coverslips. Six hours prior to fusion, cells were irradiated with 10 J/m^2 UV-C or treated with 10 μM CBZ-LLL. Cell-fusion was induced (after washing with PBS) by treatment with 50% polyethylene glycol 6,000 in HANKS™ (Gibco) for 2 min followed by (3×) washing with PBS. Finally, cells were cultured in fresh medium either supplemented with or without leptomycin B (LMB, final concentration 10 ng/ml). Three to five hours after fusion, cells were fixed with 2% paraformaldehyde and immunostained with rat monoclonal anti-HA (to monitor the XPC-GFP-His6HA protein) and rabbit polyclonal anti-human ERCC1 (to distinguish human nuclei from mouse nuclei, since it specifically recognizes human ERCC1) and subsequently with appropriate secondary antibodies (see above).

CC(C)C[C@@H](C=O)NC(=O)[C@H](CC(C)C)NC(=O)[C@H](CC(C)C)NC(=O)OCc1ccccc1 [CBZ-LLL, N-CBZ-LEU-LEU-LEU-AL] (Cbz-Leu-Leu-Leu-aldehyde)
reversibility of XPC-GFP accumulation ([1]; CBZ-LLL 5 and 10 μM, after drug removal (not shown)): reversible upon drug removal
XPC-GFP accumulation ([1]; CBZ-LLL 5 and 10 μM, confirmed by immunoblot and anti-HA immunocytochemistry): all cells displayed a striking XPC-GFP accumulation in time

OC[C@H]1O[C@@H](n2cnc3cc(Cl)c(Cl)cc32)[C@H](O)[C@@H]1O [DRB, 5,6-dichloro-1β-D-ribofuranosyl-benzimidazole]
induction of XPC-GFP fluorescence ([1]; DRB 100 μM alone, no DNA damage): No induction of XPC-GFP fluorescence was observed
UV-induced XPC-GFP accumulation ([1]; preincubation with DRB (2-3 hrs) prior to UV treatment, data not shown): prevented UV-induced XPC-GFP accumulation

CCC(=C/[C@H](C)C/C=C/C(C)=C/[C@@H](C)C(=O)[C@@H](C)[C@H](O)[C@@H](C)C/C(C)=C/C(=O)O)/C=C/[C@@H]1OC(=O)C=C[C@@H]1C [LMB, leptomycin B]
exchange of nuclear XPC-GFP from mouse (DKO) nuclei to human (HeLa) nuclei [2]: prevented this exchange

CO[C@@]12[C@H](COC(N)=O)C3=C(C(=O)C(C)=C(N)C3=O)N1C[C@@H]1N[C@@H]12 [MMC, mitomycin C]
XPC accumulation (hXPC-GFP fluorescence) ([1]; MMC 1.2 and 2.4 μg/ml): failed to provoke detectable XPC accumulation

CC(=O)ON(C(C)=O)c1ccc2c(c1)Cc1ccccc1-2 [NA-AAF, N-acetoxy-2-acetylaminofluorene]
XPC accumulation (hXPC-GFP fluorescence) ([1]; NA-AAF 50 and 100 μM, within 6 to 8 hrs): very potent UV-like response in all cells

C[C@@H]1C[C@@H]([C@H](O)CC2CC(=O)NC(=O)C2)C(=O)[C@@H](C)C1 [cyclohexamide]
XPC fluorescence ([1]; cyclohexamide 30 and 50 μg/ml): no enhanced XPC fluorescence was found
